Results on 35 compounds are retold here after US7244738B2, “Arylamine-substituted quinazolinone compounds useful as alpha 1A/B adrenergic receptor antagonists” (Roche Palo Alto LLC, priority 2003, dated 2007).

Structures can show the parent of a compound that is named as a salt. Where only a bound is given, the exact number is not on record here.

In general, melting point refers to the temperature, or range, at which the solid turns liquid. `COc1cc2[nH]c(N(C)Cc3ccc(OCC(CO)CO)cc3)nc(=O)c2c(C)c1OC` (as salt: HCl) [Example 15, 2-{[4-(3-Hydroxy-2-hydroxymethyl-propoxy)-benzyl]-methyl-amino}-6,7-dimethoxy-5-methyl-1H-quinazolin-4-one] had a melting point of 197.5 to 199 °C.

In the case of `COc1cc2[nH]c(N(Cc3ccccc3)C(C)C)nc(=O)c2cc1OC` [Example A-7, 2-(Benzyl-isopropyl-amino)-6,7-dimethoxy-1H-quinazolin-4-one], the melting point lay within 168 to 170.5 °C.

`CNc1cccc(CN(C)c2nc(=O)c3c(C)c(OC)c(OC)cc3[nH]2)c1` [Example 102, 6,7-Dimethoxy-5-methyl-2-[methyl-(3-methylamino-benzyl)-amino]-1H-quinazolin-4-one]: the melting point was in the range of 195.9 to 197.9 °C.

Compound `CONC(=O)Nc1cccc(CN(C)c2nc(=O)c3c(OC)c(OC)c(OC)cc3[nH]2)c1` [Example 181, N-Methoxy-N′-(3-{[methyl-(5,6,7-trimethoxy-4-oxo-1,4-dihydro-quinazolin-2-yl)-amino]-methyl-}-phenyl)-urea] displayed a melting point of 165 to 167 °C.

For the compound `COc1cc2[nH]c(N(C)Cc3cccc(/N=C/N(C)C)c3)nc(=O)c2cc1OC` (as salt: HCl) [Example 86, N′-(3-{[(6,7-Dimethoxy-4-oxo-1,4-dihydro-quinazolin-2-yl)-methyl-amino]-methyl}-phenyl)-N,N-dimethyl-formamidine], the melting point fell in the range of 242 to 245 °C.

Compound `COc1cc2[nH]c(N(C)Cc3cccc(N4CCCS4(=O)=O)c3)nc(=O)c2c(OC)c1OC` [Example 253, {[3-(1,1-Dioxo-1λ6-isothiazolidin-2-yl)-benzyl]-methyl-amino}-5,6,7-trimethoxy-1H-quinazolin-4-one] registered a melting point of 181.1 to 183.5 °C.

In the case of `COc1cc2nc(N(C)Cc3cccc(/N=C(\C)N(C)C)c3)[nH]c(=O)c2c(C)c1OC` (as salt: salt) [Example G-1, N′-(3-{[(6,7-Dimethoxy-5-methyl-4-oxo-1,4-dihydro-quinazolin-2-yl)-methyl-amino]-methyl}-phenyl)-N,N-dimethyl-acetamidine], the melting point lay in the range of 170.6 to 172.5 °C.

`COc1cc2[nH]c(N(C)Cc3cccc(N=C4N(C)CCN4C)c3)nc(=O)c2c(C)c1OC` [Example 50, 2-{[3-(1,3-Dimethyl-imidazolidin-2-ylidenmeamino)-benzyl]-methyl-amino}-6,7-dimethoxy-5-methyl-1H-quinazoline-4-one] showed a melting point of 200.2 to 204.4 °C.

In turn, `COc1cc2[nH]c(N(C)Cc3cccc(Nc4ccnc(Cl)n4)c3)nc(=O)c2c(OC)c1OC` [Example 214, 2-{[3-(2-Chloro-pyrimidin-4-ylamino)-benzyl]-methyl-amino}-5,6,7-trimethoxy-1H-quinazolin-4-one] returned a melting point of 205.9 to 210.1 °C.

With `COc1cc2[nH]c(N(C)Cc3ccc(OCC(O)CO)cc3)nc(=O)c2c(C)c1OC` (centres unmarked) [Example 14, 2-{[4-(2,3-Dihydroxy-propoxy)-benzyl]-methyl-amino}-6,7-dimethoxy-5-methyl-1H-quinazolin-4-one], the melting point fell in the range of 199.7 to 201.9 °C.

Compound `COc1cc2[nH]c(N(C)Cc3cccc(C(C)N(C)C(=O)N(C)C)c3)nc(=O)c2c(OC)c1OC` (centres unmarked) [Example 293] showed a melting point of 68 to 70 °C.

Take `CNC(C)c1cccc(CN(C)c2nc(=O)c3c(C)c(OC)c(OC)cc3[nH]2)c1` (centres unmarked) [Example 64, 6,7-Dimethoxy-5-methyl-2-{methyl[3-(1-methylamino-ethyl)-benzyl]-amino}-1H-quinazolin-4-one]: the melting point was in the range of 161.6 to 164.1 °C.

`COCC/C(=N\c1cccc(CN(C)c2nc(=O)c3c(OC)c(OC)c(OC)cc3[nH]2)c1)N(C)C.Cl` had a melting point of 145 °C.

For the compound `COc1cc2[nH]c(N(C)Cc3cccc(N4C[C@@H](O)CC4=O)c3)nc(=O)c2c(OC)c1OC` [Example 24, 2-{[3-((S)-4-Hydroxy-2-oxo-pyrrolidin-1-yl)-benzyl]-methyl-amino}-5,6,7-trimethoxy-1H-quinazolin-4-one], the melting point is 207.5 to 209.9 °C.

As for `CNCCc1ccc(CN(C)c2nc(=O)c3c(C)c(OC)c(OC)cc3[nH]2)cc1` [Example 23, 6,7-Dimethoxy-5-methyl-2-{methyl-[4-(2-methylamino-ethyl)-benzyl]-amino}-1H-quinazolin-4-onbe], the melting point fell in the range of 154.6 to 159 °C.

In the case of `COCC(O)COc1ccc(CN(C)c2nc(=O)c3c(OC)c(OC)c(OC)cc3[nH]2)cc1` (centres unmarked) [Example 2, 2-{[4-(2-Hydroxy-3-methoxy-propoxy)-benzyl]-methyl-amino}-5,6,7-trimethoxy-1H-quinazolin-4-one], the melting point was 108.1 to 111.5 °C.

`COc1cc2[nH]c(N(C)Cc3cccc(NCCO)c3)nc(=O)c2c(OC)c1OC` [Example 182, 2-{[3-(2-Hydroxy-ethylamino)-benzyl]-methyl-amino}-5,6,7-trimethoxy-1H-quinazolin-4-one] gave a melting point of 60.5 to 61.5 °C.

For the compound `COc1cc2[nH]c(N(C)Cc3cccc(N)c3)nc(=O)c2c(OC)c1OC` [Example 103, 2-[(3-Amino-benzyl)-methyl-amino]-5,6,7-trimethoxy-1H-quinazolin-4-one], the melting point is 225 to 226.5 °C.

In turn, `COc1cc2[nH]c(N(C)Cc3cccc(NS(=O)(=O)N(C)C)c3)nc(=O)c2c(C)c1OC` [Example 169, N′-(3-{[(6,7-dimethoxy-5-methyl-4-oxo-1,4-dihydro-quinazolin-2-yl)-methyl-amino]-methyl}-phenyl)-N,N-dimethylsulfamide] returned a melting point of 195.3 to 199 °C.

Compound `COc1cc2[nH]c(N(C)Cc3cccc(NC(C)=O)c3)nc(=O)c2c(OC)c1OC` (as salt: HCl) [Example 174, N-(3-{[Methyl-(5,6,7-trimethoxy-4-oxo-1,4-dihydro-quinazolin-2-yl)-amino]-methyl}-phenyl)-acetamide] yielded a melting point of 166.5 to 172.9 °C.

`COc1cc2[nH]c(N(C)Cc3cccc(NS(=O)(=O)N(C)C)c3)nc(=O)c2c(OC)c1OC` [Example 171, N,N-Dimethyl-N′-(3-{[methyl-(5,6,7-trimethoxy-4-oxo-1,4-dihydro-quinazolin-2-yl)-amino]-methyl}-phenyl)-sulfamide] yielded a melting point of 176.5 to 179.7 °C.

Turning to `COCCNS(=O)(=O)c1cccc(CN(C)c2nc(=O)c3c(OC)c(OC)c(OC)cc3[nH]2)c1` [Example 132, N-(2-Methoxy-ethyl)-3-{[methyl-(5,6,7-trimethoxy-4-oxo-1,4-dihydro-quinazolin-2-yl)-amino]-methyl}-benzenesulfonamide], the melting point was in the range of 176.9 to 179.1 °C.

On to `COc1cc2[nH]c(N(C)Cc3cccc(CN4CCC(O)C4)c3)nc(=O)c2c(C)c1OC` (centres unmarked) [Example 49, 2-{[3-(3-Hydroxy-pyrrolidin-1-ylmethyl)-benzyl]-methyl-amino}-6,7-dimethoxy-5-methyl-1H-quinazolin-4-one], for which the melting point fell in the range of 148 to 149.8 °C.

Take `COc1cc2[nH]c(N(C)Cc3cccc(NC(=O)N(C)C)c3)nc(=O)c2c(C)c1OC` [Example 180, 3-(3-{[(6,7-Dimethoxy-5-methyl-4-oxo-1,4-dihydro-quinazolin-2-yl)-methyl-amino]-methyl}-phenyl)-1,1-dimethyl-urea]: the melting point was in the range of 131.5 to 168 °C.

In turn, `COc1cc2[nH]c(N(C)Cc3cccc(Nc4ncccn4)c3)nc(=O)c2c(OC)c1OC` [Example 213, 5,6,7-Trimethoxy-2-{methyl-[3-(pyrimidin-2-ylamino)-benzyl]-amino}-1H-quinaozlin-4-one] yielded a melting point of 190.3 to 191.1 °C.

As for `COc1cc2[nH]c(N(C)Cc3cccc(/N=C(\C)N(C)C)c3)nc(=O)c2c(C)c1OC` [Example 167, N′-(3-{[(6,7-Dimethoxy-5-methyl-4-oxo-1,4-dihydro-quinazolin-2-yl)-methyl-amino]-methyl}-phenyl)-N,N-dimethyl-acetamide], the melting point was in the range of 174.4 to 174.8 °C.

Compound `COc1cc2[nH]c(N(C)Cc3cccc(C4CCN(C)CC4)c3)nc(=O)c2c(OC)c1OC.Cl` registered a melting point of 181.5 to 189.4 °C.

As for `COc1cc2[nH]c(N(C)Cc3cccc(C(=O)O)c3)nc(=O)c2c(C)c1OC` [Example 134, 3-{[(6,7-Dimethoxy-5-methyl-4-oxo-1,4-dihydro-quinazolin-2-yl)-methyl-amino]-methyl}-benzoic acid], the melting point lay within 283.1 to 286.2 °C.

`COc1cc2[nH]c(N(C)Cc3cccc(/N=C(\C)N(C)C)c3)nc(=O)c2c(F)c1OC` [Example 221, N′-(3-{[(5-Fluoro-6,7-dimethoxy-4-oxo-1,4-dihydro-quinazolin-2-yl)-methyl-amino]-methyl}-phenyl)-N,N-dimethyl-acetamidine] came in with a melting point of 199.9 to 201.9 °C.

In turn, `COc1cc2[nH]c(N(C)Cc3cccc(NC(C)=N)c3)nc(=O)c2c(C)c1OC` [Example G-26, N-(3-{[(6,7-Dimethoxy-5-methyl-4-oxo-1,4-dihydro-quinazolin-2-yl)-methyl-amino]-methyl}-phenyl)-acetamidine] gave a melting point of 155 to 158 °C.

`COc1cc2[nH]c(N(C)Cc3ccc(OCCO)cc3)nc(=O)c2c(C)c1OC` [Example 31, 2-{[4-(2-Hydroxy-ethoxy)-benzyl]-methylamino}-6,7-dimethoxy-5-methyl-1H-quinazolin-4-one] came in with a melting point of 198.5 to 199.5 °C.

`COc1cc2[nH]c(N(C)Cc3ccccc3N)nc(=O)c2c(OC)c1OC` (as salt: HCl) [Example 104, 2-[(2-Amino-benzyl)-methyl-amino]-5,6,7-trimethoxy-1H-quinazolin-4-one]: the melting point is > 300 °C (dec.).

`COc1cc2[nH]c(N(C)Cc3cccc(CN4CCCC4)c3)nc(=O)c2c(C)c1OC` [Example 122, 6,7-Dimethoxy-5-methyl-2-[methyl-(3-pyrrolidin-1-ylmethyl-benzyl)-amino]-1H-quinazolin-4-one] showed a melting point of 163.9 to 164.5 °C.

Compound `COc1cc2[nH]c(N(C)Cc3cccc(/N=C/N(C)C)c3)nc(=O)c2c(C)c1OC` [Example 196] gave a melting point of 185 to 186 °C.

Take `COc1cc2[nH]c(N(C)Cc3cccc(C4=NCCO4)c3)nc(=O)c2c(OC)c1OC` [Example 11, 2-{[3-(4,5-Dihydro-oxazol-2-yl)-benzyl]-methyl-amino}-5,6,7-trimethoxy-1H-quinazolin-4-one]: the melting point is 202.3 to 203.4 °C.
